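Tested at 5 concentrations; 48 h exposure; 96-well plates; endpoints linearly interpolated, else capped at highest concentration. TGI: total growth inhibition.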
Key:
Test in all cases: inhibition of tumour cell growth, NCI panel, 48 h
[1] = test system: HCC-2998 colon
[2] = test system: SW-620 colon
[3] = test system: SF-268 CNS
[4] = test system: UO-31 renal
[5] = test system: IGROV1 ovarian
[6] = test system: CAKI-1 renal
[7] = test system: 786-0 renal
[8] = test system: M14 melanoma
[9] = test system: BT-549 breast
[10] = test system: SK-OV-3 ovarian
[11] = test system: MALME-3M melanoma
[12] = test system: NCI-H522 lung
[13] = test system: SNB-19 CNS
[14] = test system: RXF 393 renal
[15] = test system: OVCAR-5 ovarian
[16] = test system: EKVX NSCLC
[17] = test system: KM12 colon
[18] = test system: TK-10 renal
[19] = test system: UACC-257 melanoma
[20] = test system: OVCAR-3 ovarian

SMILES | TGI [1] | TGI [2] | TGI [3] | TGI [4] | TGI [5] | TGI [6] | TGI [7] | TGI [8] | TGI [9] | TGI [10] | TGI [11] | TGI [12] | TGI [13] | TGI [14] | TGI [15] | TGI [16] | TGI [17] | TGI [18] | TGI [19] | TGI [20]
Cc1ccc2c(=O)cc(-c3ccsc3)[nH]c2n1 | 42.9 µM | > 21.1 µM | > 100 µM | 9.47 µM | > 100 µM | > 100 µM | > 100 µM | > 58.1 µM | > 100 µM | 72.6 µM | > 100 µM | > 27.3 µM | 86.7 µM | > 31 µM | > 100 µM | > 100 µM | > 100 µM | > 100 µM | > 100 µM | > 100 µM
O=C(O)[C@@H]1NC[C@H]2C(Br)=NO[C@H]21 | > 100 µM | > 100 µM | > 100 µM | > 100 µM | > 100 µM | > 100 µM | > 100 µM | > 100 µM | > 100 µM | > 100 µM | > 100 µM | > 100 µM | > 100 µM | > 100 µM | > 100 µM | > 100 µM | > 100 µM | > 100 µM | > 100 µM | > 100 µM
C#CCCCOc1ncccn1 | > 100 µM | > 100 µM | > 100 µM | > 100 µM | > 100 µM | > 100 µM | > 100 µM | > 100 µM | > 100 µM | > 100 µM | > 100 µM | > 100 µM | > 100 µM | > 100 µM | > 100 µM | > 100 µM | > 100 µM | > 100 µM | > 100 µM | > 100 µM
CCOC(=O)C(NCc1cccc(C(F)(F)F)c1)(NC(=O)CC)C(F)(F)F (stereo not given) | > 100 µM | > 100 µM | > 100 µM | > 100 µM | > 100 µM | > 100 µM | > 100 µM | > 100 µM | > 100 µM | > 100 µM | > 100 µM | > 100 µM | > 100 µM | > 100 µM | > 100 µM | > 100 µM | > 100 µM | > 100 µM | > 100 µM | > 100 µM
COc1ccc(/C(CC2OC(=O)c3ccccc32)=N\NC(=O)C[N+](C)(C)C)cc1 (stereo not given) | 30.9 µM | 64.1 µM | > 100 µM | 79.6 µM | > 100 µM | > 100 µM | 69.3 µM | > 100 µM | 77.1 µM | > 100 µM | > 100 µM | 64.1 µM | 96.5 µM | 77.6 µM | > 100 µM | > 100 µM | 52 µM | 87.8 µM | 91.8 µM | > 100 µM
Cc1ccc2[nH]c3c(c2c1)C1CCC(C(C)(C)C)CC1C1C(=O)N(c2ccc4c(c2)OCO4)C(=O)C31 (stereo not given) | 5.84 µM | 7.95 µM | 5.04 µM | 7.28 µM | 6.68 µM | 5.54 µM | 3 µM | 17.2 µM | 20.6 µM | 6.86 µM | 6.14 µM | 7.18 µM | 7.97 µM | 4.11 µM | 13.6 µM | 10.1 µM | 19 µM | 4.32 µM | 23.7 µM | 3.08 µM

Source: PubChem BioAssay (NCI)
